The values that follow come from PubChem BioAssay AID1996.

Molecules are shown by their SMILES. Values after ≈ are worked out from the molar mass of the structure shown. Bounds are passed on as bounds.

The conditions of the series: buffer; pH 7.4; 200.0 µM.
For orientation: kinetic solubility means the concentration staying in solution when a stock, usually in DMSO, is diluted into the medium. In turn, `O=[N+]([O-])c1ccc(Cl)c(S(=O)(=O)Nc2cccc(S(=O)(=O)NC3=NCCC3)c2)c1` had a solubility (kinetic) greater than 68.8 µg/mL.
Molecule `Cc1cccc(OCC(=O)Nc2nccs2)c1C` showed a kinetic solubility of 5.1 µg/mL (≈ 19.4 µM).
On to `CC(CC12CC3CC(CC(C3)C1)C2)NCc1ccccc1O.Cl` (stereo not drawn), for which the kinetic solubility is 38.5 µg/mL.
As for `O=C(Nc1ccc(N2CCOCC2)nc1)c1cccs1`, the kinetic solubility is greater than 43.4 µg/mL.
In turn, `CCc1nc2ccccc2c(C(=O)Nc2ccc(F)cc2)c1C` showed a kinetic solubility of less than 0.3 µg/mL.
In turn, `COc1ccc(C2=CSC3=NCCN23)cc1Cl` yielded a kinetic solubility of 38.4 µg/mL (≈ 144 µM).
Take `COCCn1c(Cc2ccccc2)nnc1SCC(=O)Nc1ccccc1`: the solubility (kinetic) was greater than 57.4 µg/mL.
Consider `CC(C)C1N(C(=O)N(C)C)CCN1S(=O)(=O)c1ccccc1` (stereo not drawn), for which the solubility (kinetic) is greater than 48.8 µg/mL.
With `O=[N+]([O-])c1ccc(C(O)C(CO)NC(=S)Nc2ccccc2)cc1` (stereo not drawn) the figure was greater than 52.1 µg/mL; with `Cc1ccc(C(=O)NCC(=O)N2CCc3ccccc3C2)cc1C`, greater than 48.4 µg/mL; with `O=C(NCC1CCCCC1)c1ccc(Br)o1`, greater than 42.9 µg/mL.
The molecule `Cc1nc2sc(C(=O)OC(C)C)c(N)c2c(C)c1C` yielded a solubility (kinetic) of less than 0.3 µg/mL.
As to `COc1ccc(CN(C)CC(=O)N2CCc3ccccc3C2)cc1`, the solubility (kinetic) is greater than 48.7 µg/mL.
For `CC(C)CCNc1nc(N)c([N+](=O)[O-])c(N2CCCCCC2)n1`, the solubility (kinetic) turned out to be 0.5 µg/mL (≈ 1.55 µM).
In turn, `CCOC(=O)CC(c1ccc([N+](=O)[O-])cc1)n1c(C)ccc1C` (stereo not drawn) had a solubility (kinetic) of 32.9 µg/mL (≈ 104 µM).
In turn, `COc1cccc(C(=O)c2c(C)c(CCC#N)n3ccccc23)c1` yielded a solubility (kinetic) of 43.5 µg/mL (≈ 137 µM).
For the molecule `COc1ccccc1NS(=O)(=O)c1ccc(OC)c([N+](=O)[O-])c1`, the kinetic solubility is greater than 50.8 µg/mL.
The result for `CCN(CC)CCN1CNC(=S)N(c2ccccc2OC)C1` reads greater than 48.4 µg/mL.
In turn, `CCOC(=O)c1sc(=NC(=O)c2cccs2)n(C)c1C` came in with a kinetic solubility of less than 0.3 µg/mL.
Consider `COCCNC(=O)C12CC3CC(CC(Cl)(C3)C1)C2`, for which the kinetic solubility was greater than 40.8 µg/mL.
Consider `CCCn1c(Nc2cccc(OC)c2)nc2ccccc21`, for which the solubility (kinetic) is 2.1 µg/mL (≈ 7.46 µM).
In the case of `CN(C)c1nc(NCc2ccccc2)nc(SCC(N)=O)n1`, the solubility (kinetic) was determined as 43.7 µg/mL (≈ 137 µM).
On to `CN(C)c1ccc(NC(=O)C[n+]2ccccc2)cc1.[Cl-]`, for which the solubility (kinetic) is greater than 43.8 µg/mL.
For `O=c1[nH]c(SCc2cccc(F)c2)nc2ccccc12`, the kinetic solubility is less than 0.3 µg/mL.
With `O/N=C(/c1ccc(F)cc1)C1CC1c1c(F)cccc1Cl` (stereo not drawn) the figure was 5 µg/mL (≈ 16.2 µM); with `Cc1ccccc1C(=O)NCCOc1ccccc1Cl`, 40.4 µg/mL (≈ 139 µM).
With `CC(=O)NC1CCN(CC(=O)Nc2nccs2)CC1` the figure was 40.5 µg/mL (≈ 143 µM); with `CCOC(=O)CNc1nc(Cl)nc(N2CCCCC2)n1`, 12.3 µg/mL (≈ 41 µM).
As to `COc1ccccc1/C=C1\SC(N2CCC(C)CC2)=NC1=O`, the kinetic solubility turned out to be 35 µg/mL (≈ 111 µM).
The result for `Cc1cccc(C(=O)NCC(=O)OCc2nc(N)nc(Nc3ccccc3C)n2)c1` reads 53.8 µg/mL (≈ 132 µM).
`Cc1ccc(N2C(=O)CS/C2=N\C(=S)Nc2ccccc2)cc1` gave a solubility (kinetic) of 1 µg/mL (≈ 2.93 µM).
For the molecule `CN(C)CCCNC(=O)c1cc(C(=O)c2ccccc2)c[nH]1`, the solubility (kinetic) is greater than 44.9 µg/mL.
With `O=C(Nc1ccc(C(F)(F)F)cc1)c1ccc2ncsc2c1`, the solubility (kinetic) was determined as 4.6 µg/mL (≈ 14.3 µM).
The molecule `COc1ccccc1CNC(=O)Cc1ccccc1` came in with a solubility (kinetic) of 24.7 µg/mL (≈ 96.7 µM).
The result for `CN1C(=O)C(=Cc2coc3ccccc3c2=O)C(=O)N(C)C1=O` reads greater than 46.8 µg/mL.
Take `CC1CCCC(NC(=O)COC(=O)COc2ccccc2Cl)C1C` (stereo not drawn): the solubility (kinetic) came to 31.1 µg/mL (≈ 87.9 µM).
With `CC(=O)c1cccc(NC(=O)COC(=O)c2ccccn2)c1`, the solubility (kinetic) came to 35 µg/mL (≈ 117 µM).
In turn, `Cc1ccc(N2C(=O)CCC2(C(N)=O)c2ccccc2)cc1` (stereo not drawn) registered a kinetic solubility greater than 44.2 µg/mL.
As for `CCN1CCN(C(=O)/C=C/c2ccc3c(c2)OCO3)CC1`, the kinetic solubility was greater than 43.3 µg/mL.
Consider `NC(=O)c1sc2nc3c(cc2c1N)CCCCCC3`, for which the solubility (kinetic) was found to be 22.3 µg/mL (≈ 81 µM).
The result for `CC(=O)N(Cc1ccccn1)Cc1ccco1` reads greater than 34.5 µg/mL.
`CC1=C/C(=C/N(C)C)C(=O)O1`: the kinetic solubility was found to be 15.7 µg/mL (≈ 102 µM).
For `CSc1ccc(CN2CCSCC2)cc1`, the kinetic solubility turned out to be 17 µg/mL (≈ 71 µM).
For the molecule `CCN(CC)c1cc(C)c2cc(NC(=O)c3ccccc3F)ccc2n1`, the kinetic solubility turned out to be 10.7 µg/mL (≈ 30.4 µM).
With `CCCN1CCN(C(=O)c2ccc3nc(CC)c(CC)nc3c2)CC1` the figure was greater than 51.1 µg/mL; with `COC(=O)c1cccc(-n2c(CCC(=O)O)ccc2-c2cccs2)c1`, greater than 53.3 µg/mL; with `COc1ccc(/C=N/OCC(=O)N2CCCC2)c(OC)c1`, greater than 43.9 µg/mL.
Consider `CCc1nc2ccccc2c(C(=O)Nc2cc(C)ccc2C)c1C`, for which the kinetic solubility was found to be 45.6 µg/mL (≈ 143 µM).
As for `CN(C)CCNC(=O)Nc1ccc(F)cc1F`, the solubility (kinetic) was greater than 36.5 µg/mL.
With `O=[N+]([O-])c1cccnc1Oc1ccc(F)cc1F` the figure was 28.3 µg/mL (≈ 112 µM); with `CCC1(CC)NC(=O)N(CC(=O)Nc2ccc(OCc3ccccc3)cc2)C1=O`, 8.9 µg/mL (≈ 22.5 µM).
As for `O=C1NC(=O)/C(=C/c2ccccc2Cl)N1`, the solubility (kinetic) was found to be 17.8 µg/mL (≈ 80 µM).
`Cn1cnc([N+](=O)[O-])c1Sc1ccc(C(C)(C)C)cc1` displayed a kinetic solubility of 6.1 µg/mL (≈ 20.9 µM).
